Paper PMC7377239, “Cardiovascular Effects of Polychlorinated Biphenyls and Their Major Metabolites” (Environmental Health Perspectives, 2020)
Where two headings read alike, the source gives them in different places.

Key:
HUVECs = test: Tube formation (tubulogenesis) assay in HUVECs, 18 h; format: cell-based, human; settings: Homo sapiens, HUVEC, 18 h, HUVECs; for activity at 0.1 µM: 0.10 µM; for minimal effective concentration: top concentration 100.00 µM
Method in brief: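 HUVECs (passage 1–5) seeded on reduced-growth-factor basement membrane and exposed to compounds overnight at 37°C, 5% CO2, in 2× maintenance medium with 12.5 ng/mL VEGF; 0.5% DMSO vehicle. Calcein AM-stained tube networks imaged and analysed; vehicle-normalized readouts fit to four-parameter logistic, POD set at one SD of vehicle means.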

[1] = test system: iCell endothelial cells (human iPSC-derived ECs); test: High-content imaging cytotoxicity in iCell endothelial cells, 24 h; format: cell-based; settings: Homo sapiens, Endothelial cell, iPSC-EC, 24 hr; for viability at 0.1 µM / activity at 0.1 µM: 0.10 µM; for minimal effective concentration: top concentration 100.00 µM
Method in brief: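 Human iPSC-derived endothelial cells (passages 1–5) were grown to a fibronectin-coated monolayer, then exposed 24 h at 37 °C with 0.5% DMSO vehicle. Staining was Hoechst 33342, MitoTracker Orange and calcein AM, read by high-content imaging. Point of departure came from 4-parameter logistic fits, with a 1-SD vehicle cutoff and 100 µM as the top concentration.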

[2] = 0.00 µM = 100.00, read-out: huvec.mtl.18hr
[3] = 0.00 µM = 100.00, read-out: huvec.tlps.18hr
[4] = 0.00 µM = 100.00, read-out: huvec.tta.18hr
[5] = 0.00 µM = 100.00, read-out: huvec.ttl.18hr
[6] = 0.00 µM control = 100.00, read-out: endo.cyto.24hr
[7] = 0.00 µM control = 100.00, read-out: endo.mito.24hr
[8] = 0.00 µM control = 100.00, read-out: endo.mitoint.24hr
[9] = 0.00 µM control = 100.00, read-out: endo.nma.24hr
[10] = 0.00 µM control = 100.00, read-out: endo.tc.24hrs

Compound: COc1ccc(-c2ccc(Cl)cc2)cc1 [4'-OMe PCB3]
- activity at 0.01 µM (HUVECs; [2]): 112%
- activity at 0.01 µM (HUVECs; [3]): 133%
- activity at 0.01 µM (HUVECs; [4]): 123%
- activity at 0.01 µM (HUVECs; [5]): 113%
- activity at 0.1 µM (HUVECs; [2]): 111%
- activity at 0.1 µM (HUVECs; [3]): 139%
- activity at 0.1 µM (HUVECs; [4]): 131%
- activity at 0.1 µM (HUVECs; [5]): 125%
- activity at 1 µM (HUVECs; [2]): 103%
- activity at 1 µM (HUVECs; [3]): 128%
- activity at 1 µM (HUVECs; [4]): 116%
- activity at 1 µM (HUVECs; [5]): 111%
- activity at 10 µM (HUVECs; [2]): 81.4%
- activity at 10 µM (HUVECs; [3]): 122%
- activity at 10 µM (HUVECs; [4]): 75.2%
- activity at 10 µM (HUVECs; [5]): 75.8%
- activity at 100 µM (HUVECs; [2]): 58.6%
- activity at 100 µM (HUVECs; [3]): 37.2%
- activity at 100 µM (HUVECs; [4]): 51.7%
- activity at 100 µM (HUVECs; [5]): 48.9%
- minimal effective concentration (HUVECs; read-out: huvec.mtl.18hr POD): 7.13 µM
- minimal effective concentration (HUVECs; read-out: huvec.tlps.18hr POD): 49.5 µM
- minimal effective concentration (HUVECs; read-out: huvec.tta.18hr POD): 8.82 µM
- minimal effective concentration (HUVECs; read-out: huvec.ttl.18hr POD): 7.82 µM
- viability at 0.01 µM [1, 6]: 93.4%
- activity at 0.01 µM [1, 7]: 93.4%
- activity at 0.01 µM [1, 8]: 107%
- activity at 0.01 µM [1, 9]: 105%
- viability at 0.01 µM [1, 10]: 93.4%
- viability at 0.1 µM [1, 6]: 103%
- activity at 0.1 µM [1, 7]: 103%
- activity at 0.1 µM [1, 8]: 99.7%
- activity at 0.1 µM [1, 9]: 98.5%
- viability at 0.1 µM [1, 10]: 103%
- viability at 1 µM [1, 6]: 95.6%
- activity at 1 µM [1, 7]: 96%
- activity at 1 µM [1, 8]: 102%
- activity at 1 µM [1, 9]: 102%
- viability at 1 µM [1, 10]: 95.6%
- viability at 10 µM [1, 6]: 108%
- activity at 10 µM [1, 7]: 109%
- activity at 10 µM [1, 8]: 107%
- activity at 10 µM [1, 9]: 95%
- viability at 10 µM [1, 10]: 108%
- viability at 100 µM [1, 6]: 93.3%
- activity at 100 µM [1, 7]: 93.7%
- activity at 100 µM [1, 8]: 119%
- activity at 100 µM [1, 9]: 99.7%
- viability at 100 µM [1, 10]: 93.5%
- minimal effective concentration ([1]; read-out: endo.cyto.24hr POD): 100 µM
- minimal effective concentration ([1]; read-out: endo.mito.24hr POD): 100 µM
- minimal effective concentration ([1]; read-out: endo.mitoint.24hr POD): 20.5 µM
- minimal effective concentration ([1]; read-out: endo.nma.24hr POD): 100 µM
- minimal effective concentration ([1]; read-out: endo.tc.24hrs POD): 100 µM
